Values quoted from earlier work in patent publication US5830503A (Andrx Pharmaceuticals, Inc., priority 1996, dated 1998).

Settings: as compared to intravenous administration; first pass effect

absolute bioavailability: about 40%
SMILES: COc1ccc([C@@H]2Sc3ccccc3N(CCN(C)C)C(=O)[C@@H]2OC(C)=O)cc1 [diltiazem]
